Experimental data: US7407936B2, “Use of copolymer 1 and related peptides and polypeptides and T cells treated herewith for neuroprotective glaucoma therapy” (Yeda Research and Development Co. Ltd., priority 2000, dated 2008)

Legend:
[1] = system: retinal ganglion cells (RGCs); assay: Glutamate toxicity in mice (intravitreal glutamate), RGC survival; assay type: in vivo, C57BL/6J mice
[2] = system: retinal ganglion cells (RGCs); assay: Optic nerve crush injury in rats: secondary degeneration by retrograde labeling of RGCs; assay type: in vivo, Lewis rats; details: mild crush; vaccinated with Cop 1 in IFA immediately, booster two days later; P<0.05
Protocol: Crush Injury of Optic Nerve. The optic nerve was subjected to crush injury as previously described (Duvdevani et al, 1990). Briefly, rats were deeply anesthetized by intraperitoneal (i.p.) injection of Rompun (xylazine, 10 mg/kg; Vitamed, Israel) and Vetalar (ketamine, 50 mg/kg; Fort Dodge Laboratories, Fort Dodge, Iowa). Using a binocular operating microscope, lateral canthotomy was performed in the right eye, and the conjunctiva was incised lateral to the cornea. After separation of the retractor bulbi muscles, the optic nerve was exposed intraorbitally by blunt dissection. Using calibrated cross-action forceps, the optic nerve was subjected to a crush injury 1-2 mm from the eye. […]
Measurement of Secondary Degeneration by Retrograde Labeling of Retinal Ganglion Cells. Secondary degeneration of the optic nerve axons and their attached retinal ganglion cells (RGCs) was measured after post-injury application of the fluorescent lipophilic dye, 4-(4-(didecylamino)styryl)-N-methylpyridinium iodide (4-Di-10-Asp) (Molecular Probes Europe BV, Netherlands), distally to the lesion site, two weeks after crush injury. Because only axons that are intact can transport the dye back to their cell bodies, application of the dye distally to the lesion site after two weeks ensures that only axons that survived both the primary damage and the secondary degeneration will be counted. […]

[3] = system: retinal ganglion cells (RGCs); assay: NMDA toxicity in mice (intravitreal NMDA), RGC survival; assay type: in vivo; details: immunized ten days before NMDA (75 nmole); p=0.55 vs PBS
[4] = batches of average molecular weight 23,000; Teitelbaum et al; cited from earlier work
[5] = patients, cited from earlier work
[6] = system: retinal ganglion cells (RGCs); assay: Severe optic nerve crush injury in mice, RGC survival; assay type: in vivo, Balb/c mice; details: 50 μg Cop-1 in CFA before severe crush; two weeks after injury; p<0.001
retinal ganglion cells = assay: Ocular hypertension (laser-induced increased IOP) in rats, RGC survival; assay type: in vivo, Lewis rats; details: immunized in CFA on the day of the first laser treatment; after 3 weeks; p<0.0001

Row | Substance | RGC survival after glutamate injection, effect of immunization ([1]; pMOG in CFA prior to glutamate (200 nmole), assessed 1 week later) | neuroprotection (surviving RGCs) compared with PBS in IFA [2] | protection from toxicity caused by NMDA (RGC survival) [3] | protecting and suppressing EAE [4] | glutamate toxicity in controls relative to immunized mice ([1]; 75 μg Cop 1 in CFA ten days before 200 nmoles glutamate, RGCs counted seven days later) | mean percentage survival rate of RGCs versus PBS-injected ([1]; immunization 24 h after glutamate injection) | mean percentage survival rate of RGCs versus PBS-injected ([1]; immunization 48 h after glutamate injection) | rates of RGC survival versus PBS in adjuvant ([1]; immunized on the day of glutamate injection, adjuvant 0.5 or 5 mg/ml bacteria) | glutamate toxicity (RGC survival) after immunization ([1]; immunized ten days before glutamate, adjuvant 5 mg/ml bacteria) | number of relapses in exacerbating-remitting MS ([5]; Bornstein 1990, Sela 1990, Johnson 1994) | tolerability in clinical trials ([5]; Johnson et al, 1995) | RGC survival rates relative to non-immunized controls [6] | numbers of surviving retinal ganglion cells versus PBS/CFA controls (retinal ganglion cells)
1 | GQFRVIGPGHPIRALVGDEAEL (listed as Homo sapiens) [pMOG, Myelin oligodendrocyte glycoprotein (MOG) peptide 1-22] | no evidence of a beneficial effect | – | – | – | – | – | – | – | – | – | – | – | –
2 | Glatiramer acetate [Cop 1] | – | significant neuroprotection | failed to protect | highly effective | about four | significantly higher | not significant | significantly higher | significant reduction | significantly reduce | well tolerated with only minor side reactions | significantly higher | significantly higher
